Reference: patent US10183273B2, “Absorbent article comprising cyclodextrin complexes” (The Procter & Gamble Company, priority 2016, dated 2019)

Assay: Thiol Vapor Pressure Suppression (TVPS) index, zNose fast GC headspace
Design: key: % reduction in butanethiol headspace peak area vs control
Settings: percentage reduction in butanethiol headspace peak area; 5 μl compound, 37° C. 4 hours
Description: (§1) Thiol Vapor Pressure Suppression (TVPS) index is a measure of the reduction in butanethiol concentration in the headspace by a compound, as measured using a fast GC instrument, the zNose 7100 (Electronic Sensor Technologies, Newbury Park, Calif.).
as §1, with “Calif.) based on an Surface Acoustic Wave (SAW) Quartz microbalance detector, or equivalent.” for “Calif.).”
Before any measurements the instrument is calibrated according to manufacturer's instructions under the same experimental settings. The instrument has a DB-5 column (also available from Electronic Sensor Technologies, Newbury Park, Calif.) 1 m in length, 0.25 μm phase thickness, and 0.25 mm in diameter.
For analysis, the zNose is programmed with the Sensor Temperature, Inlet Temperature, Valve Temperature, and Initial Column Temperature all set to 40° C. The oven is temperature gradient is programmed at a rate of 10 C°/s from 40° C. to a final temperature of 200° C.
TVPS of a compound is measured in the following way: 100 μl±1 μl of a 1% v/v butanethiol (99%, purity, available from Sigma-Aldrich, St. Louis, Mo.) solution in ethanol (200 proof) is added into a 1 ml vial (8×40 mm). These vials are borosilcate glass straight walled vial. In another 1 ml vial (8×40 mm), 5 μl±0.2 μl of the compound is added. Both open vials are then placed inside a 20 mL headspace vial (22×75 mm), and the vial is immediately sealed using a screw thread closure with PTFE/Silicone septa. The vial is heated to 37° C. for 4 hours. After 4 hours, the vial is removed from the oven and let to equilibrate at 25° C.±2° C. for 15 minutes. The headspace inside the vial is sampled using the zNose is sampled for 10 s and analyzed following the experimental protocol outlined above. Samples with butanethiol alone, and the volatile active alone, are run using the same protocol to identify the peaks for both materials. An acceptable retention index for butanethiol is 720±30. If the peaks butanethiol peak and the volatile material peak co-elute, one skilled in the art can modify the protocol settings to separate those peaks to achieve a minimum resolution of 1.5. For example one can change the column temperature ramp rate. In between samples, the instrument needs to be cleaned to remove any trace materials. To clean the instrument, the instrument is run without samples as needed until no peaks greater than 100 counts are observed.
The amount of butanethiol in the headspace is measured from the area of the peak on the chromatograph for butanethiol (ABtSH,Rx). To calculate the percentage of butanethiol reduction in the headspace, a control with the butanethiol solution without the volatile material is run in the same manner and the area is measured as well (ABtSH,C). TVPS is then measured as the percentage reduction in butanethiol area calculated using the following formula: […]

Compound	TVPS
CC(C)=CCC/C(C)=C\C=O [neral]	17.1
CC(C)=CCCC(C)CCCC(C)C=O (stereo not drawn) [adoxal]	24.4
CC1=CC(C)C(C=O)CC1 (stereo not drawn) [ligustral]	42.5
Cc1ccc(C=O)s1 [5-methyl-2-thiophene-carboxaldehyde]	67.4
CCC/C=C/C=O [trans-2-hexenal]	27.1
CC(C)=CCCC(C)C=O (stereo not drawn) [melonal]	20.4
CCCCCCC(C=O)=Cc1ccccc1 [Hexylcinnamic aldehyde]	8.0
CC(C)c1cccc(C(C)CC=O)c1 (stereo not drawn) [Florhydral]	53.3
C=CC(C)CCC=C(C)CCC=O (stereo not drawn) [Floral Super]	52.4
